# Source: patent US9480259B2, “Pyrazolopyrans having herbicidal and pharmaceutical properties” (BASF SE, priority 2012, dated 2016)
# Assays:
# GALAP (Galium aparine) = assay: Greenhouse herbicidal test, post-emergence, GALAP; type: in vivo; settings: application rate 1 kg/ha, scale 0 to 100
# Text: (§1) The seeds of the test plants were sown separately for each species. For the post-emergence treatment, the test plants were first grown to a height of 2 to 5 cm, depending on the plant habit, and only then treated with the active ingredients which had been suspended or emulsified in water. For this purpose, the test plants were either sown directly and grown in the same containers, or they were first grown separately as seedlings and transplanted into the test containers a few days prior to treatment. Depending on the species, the plants were kept at 10-25° C. or 20-35° C. The test period extended over 8 to 9 days. During this time, the plants were tended, and their response to the individual treatments was evaluated. Evaluation was carried out using a scale from 0 to 100. 100 means no emergence of the plants, or complete destruction of at least the aerial moieties, and 0 means no damage, or normal course of growth. A good herbicidal activity is given at values of at least 70 and a very good herbicidal activity is given at values of at least 85. The plants used in the greenhouse experiments belonged to the following species: [table]
# [1] = tested on: CHEAL (Chenopodium album); assay: Greenhouse herbicidal test, post-emergence, CHEAL; type: in vivo; settings: Chenopodium album, application rate 1 kg/ha, scale 0 to 100, read-out: herbicidal activity against CHEAL
# Text: as §1
# [2] = molecular target: Arabidopsis thaliana SHMT; assay: SHMT activity assay (ED50 SHMT), coupled with N5,N10-CH2-THF dehydrogenase, NADH at 340 nm; type: biochemical; settings: values given as upper bounds
# Outline: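 His-tagged SHMT purified on Ni-NTA. NADH formation followed at 340 nm for 30 min; ED50 from inhibition of initial velocity.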
# [3] = tested on: SETFA, AMARE, POLCO, CHEAL, GALAP; assay: Greenhouse herbicidal test, post-emergence, weed panel; type: in vivo; settings: application rate 1 kg/ha, scale 0 to 100
# Text: as §1
# [4] = tested on: AMARE (Amaranthus retroflexus); assay: Greenhouse herbicidal test, post-emergence, AMARE; type: in vivo; settings: Amaranthus retroflexus, application rate 1 kg/ha, scale 0 to 100, read-out: herbicidal activity against AMARE
# Text: as §1
# SETFA (Setaria faberi) = assay: Greenhouse herbicidal test, post-emergence, SETFA; type: in vivo; settings: application rate 1 kg/ha, scale 0 to 100, read-out: herbicidal activity against SETFA
# Text: as §1
# [5] = Arabidopsis thaliana SHMT enzyme assay
SMILES,EC50 ([2]; Table 2) [nM],"EC50 [2, 5] [nM]",herbicidal activity against GALAP (GALAP (Galium aparine)),pest or weed control at 1000 g/ha [1] [%],"herbicidal activity against at least three of the weeds SETFA, AMARE, POLCO, CHEAL, GALAP [3]",pest or weed control at 1000 g/ha [4] [%],pest or weed control at 1000 g/ha (SETFA (Setaria faberi)) [%]
COc1c(C#N)cc(C2(C3CCC3)C(C#N)=C(N)Oc3[nH]nc(C)c32)cc1C#N (stereo not drawn) [Compound 2.486],< 10,,very good (a very good herbicidal activity is given at values of at least 85),≥ 70,good or very good,≥ 85,
Cc1n[nH]c2c1C(c1cc(C#N)cc(N(C)C(=O)CCCC#N)c1)(C(C)C)C(C#N)=C(N)O2 (stereo not drawn) [Compound 2.664],,< 10,,≥ 85,good or very good,≥ 85,≥ 85
Cc1n[nH]c2c1C(c1cc(C#N)cc(CCCC#N)c1)(C(C)C)C(C#N)=C(N)O2 (stereo not drawn) [Compound 2.675],,< 10,,≥ 85,good or very good,≥ 85,≥ 70

# More lines, main results first:
EC50 ([2]; Table 2) [nM],"EC50 [2, 5] [nM]",SMILES,herbicidal activity against GALAP (GALAP (Galium aparine)),pest or weed control at 1000 g/ha [1] [%],"herbicidal activity against at least three of the weeds SETFA, AMARE, POLCO, CHEAL, GALAP [3]",pest or weed control at 1000 g/ha [4] [%],pest or weed control at 1000 g/ha (SETFA (Setaria faberi)) [%]
,< 10,COCC(=O)N(C)c1cc(C#N)cc(C2(C(C)C)C(C#N)=C(N)Oc3[nH]nc(C)c32)c1 (stereo not drawn) [Compound 2.688],,≥ 85,good or very good,≥ 85,≥ 85
,< 100,CC(=O)NCC(=O)N(C)c1cc(C#N)cc(C2(C3CCC3)C(C#N)=C(N)Oc3[nH]nc(C)c32)c1 (stereo not drawn) [Compound 2.709],,≥ 85,good or very good,≥ 85,≥ 70
,< 10,Cc1n[nH]c2c1C(c1cc(Br)cc(N(C)C(=O)CC#N)c1)(C1CCC1)C(C#N)=C(N)O2 (stereo not drawn) [Compound 2.729],,≥ 85,good or very good,≥ 85,≥ 70
